These results are taken from patent US20210277015A1, “OGA INHIBITOR COMPOUNDS” (Janssen Pharmaceutica NV, priority 2018, published 2021).

The melting point is the temperature, or range, at which the solid turns liquid. One may read the Emax as the size of the effect at its maximum, as opposed to the concentration needed.

The target in data set [1] is T1, recombinant human Meningioma Expressed Antigen 5 (MGEA5), also referred to as O-GlcNAcase (OGA) (Homo sapiens, UniProt O60502).
T1 construct: Full length OGA enzyme was purchased at OriGene (cat #TP322411); purchased OriGene TP322411
T1 sequence (O60502 1-916): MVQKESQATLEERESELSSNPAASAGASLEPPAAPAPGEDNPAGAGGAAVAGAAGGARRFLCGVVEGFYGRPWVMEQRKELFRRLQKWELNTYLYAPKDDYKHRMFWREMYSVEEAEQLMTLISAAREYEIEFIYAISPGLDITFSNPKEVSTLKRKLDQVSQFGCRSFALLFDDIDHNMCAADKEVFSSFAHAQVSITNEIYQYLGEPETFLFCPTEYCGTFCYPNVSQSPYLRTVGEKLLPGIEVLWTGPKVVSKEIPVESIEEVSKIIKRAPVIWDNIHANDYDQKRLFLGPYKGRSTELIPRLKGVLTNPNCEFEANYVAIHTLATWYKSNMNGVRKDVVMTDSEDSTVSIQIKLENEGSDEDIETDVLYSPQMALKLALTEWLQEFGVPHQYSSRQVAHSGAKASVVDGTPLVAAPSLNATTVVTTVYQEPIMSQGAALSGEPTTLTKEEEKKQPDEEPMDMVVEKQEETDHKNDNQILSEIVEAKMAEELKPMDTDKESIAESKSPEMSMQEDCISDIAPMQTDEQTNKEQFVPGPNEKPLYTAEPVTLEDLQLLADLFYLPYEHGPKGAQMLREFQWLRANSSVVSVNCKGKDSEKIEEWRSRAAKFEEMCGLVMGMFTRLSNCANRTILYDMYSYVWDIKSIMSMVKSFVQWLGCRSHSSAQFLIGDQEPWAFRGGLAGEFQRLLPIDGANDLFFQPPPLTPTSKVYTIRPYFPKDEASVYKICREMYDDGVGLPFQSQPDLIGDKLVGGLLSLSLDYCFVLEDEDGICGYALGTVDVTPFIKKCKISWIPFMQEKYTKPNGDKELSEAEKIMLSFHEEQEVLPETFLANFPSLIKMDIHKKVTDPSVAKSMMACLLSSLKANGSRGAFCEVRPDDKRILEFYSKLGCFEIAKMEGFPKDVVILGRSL
Briefly: OGA biochemical assay (inhibition of FM-GlcNAc hydrolysis, fluorescence). The settings on record: FM-GlcNAc substrate; for IC50: 6 h at room temperature, read-out: Enzymatic hOGA, pIC50 (converted); for Emax / Enzymatic Emax (%): maximal effect; for Emax: read-out: Enzymatic Emax (%). Put shortly: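 Full-length human OGA (2 nM) pre-incubated 60 min at room temperature with compound, then FM-GlcNAc (100 µM final) added in citrate/phosphate buffer pH 7.2 with 0.005% Tween-20; 6 h at room temperature, stopped with carbonate pH 11.0. Fluorescein read at 485/538 nm; IC50 and Hill coefficient from curve fit.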

A further data set has as its target T2, OGA (Homo sapiens, UniProt O60502).
T2 construct: endogenous in cells; host or cells: HEK293 cells inducible for P301L mutant human Tau (isoform 2N4R)
T2 sequence (O60502 1-916): T1 sequence (O60502 1-916)
Put plainly: OGA cellular assay (ICC detection of O-GlcNAcylated proteins in HEK293 cells inducible for P301L mutant human Tau). Format: cell-based. The note with it: for Emax: HEK293, HEK293 cells inducible for P301L mutant human Tau; for Emax / Cellular Emax (%): maximum defined by Thiamet G at 200 uM; for EC50: read-out: Cellular hOGA, pEC50 (converted). In outline:
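HEK293 cells inducible for P301L human Tau (2N4R), in low-glucose medium, treated 6 h with compounds at 0.2% DMSO. After PFA fixation, O-GlcNAcylated proteins immunostained (CTD110.6), intensity imaged at 488 nm, Hoechst nuclei counted for toxicity. IC50 via non-linear regression; Thiamet G 200 uM as maximum.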

Setting [2] is: HEK293 cells inducible for P301L mutant human Tau, 6 hours incubation, ICC O-GlcNAcylation.
Where [3] appears, read: HEK293 cells inducible for P301L mutant human Tau.

Counter-ions that a name gives are not always drawn.

As to `Cc1cc(C[C@H]2CCN(C(C)c3ccc4c(c3)OCCN4C)C2)cc(C)n1` (stereo partly drawn) (as salt: HCl) [Product 1], the melting point came to 297.5 °C.
As for `Cc1cc(C[C@H]2CCN(C(C)c3ccc4c(n3)OCCO4)C2)cc(C(F)(F)F)n1` (stereo partly drawn) [Product 5], in data set [1], the IC50 was 126 nM and the Emax was 100%. Also, the Emax at OGA turned out to be 45%.
Regarding `Cc1cc(C[C@H]2CCN(C(C)c3ccc4c(c3)OCC4)C2)cc(C(F)(F)F)n1` (stereo partly drawn) [Product 6], in data set [1], the IC50 was 79.4 nM and the Emax was found to be 103%. For the same compound, on OGA, the Emax worked out at 47%. On OGA (setting [2]), the EC50 is above 1000 nM.
For `Cc1cc(C[C@H]2CCN(C(C)c3cc4c(cc3F)OCCO4)C2)cc(C(F)(F)F)n1` (stereo partly drawn) [Product 7], in that order: 20 nM, 102%, 79% and 398 nM.
In the same order, the values of `COc1cc(C[C@H]2CCN(C(C)c3ccc4c(c3)OCC4)C2)cc(C)n1` (stereo partly drawn) [Product 8] are 126 nM, 101%, 58% and 794 nM.
Turning to `COc1cc(C[C@H]2CCN(C(C)c3nc4c(cc3F)OCCO4)C2)cc(C)n1` (stereo partly drawn) [Product 16], in data set [1], the IC50 is 20 nM and the Emax came to 102%. In addition, on OGA, the Emax amounted to 89%. Further, the EC50 at OGA (setting [2]) was 126 nM.
For `Cc1cc(O[C@@H]2CCN(C(C)c3nc4c(cc3F)CCO4)C2)cc(C)n1` (stereo partly drawn) [Product 17], in data set [1], the IC50 is 2.51 nM and the Emax was found to be 101%. Besides, the Emax at OGA came to 77%. Further, the EC50 on OGA (setting [2]) was 20 nM.
As for `COc1cc(C[C@H]2CCN(C(C)c3cnc4c(c3)OCCN4)C2)cc(C)n1` (stereo partly drawn) [Product 20], in data set [1], the IC50 was 79.4 nM and the Emax was 101%. The Emax on OGA came to 61%. The EC50 at OGA (setting [2]) was 501 nM.
In the same order, the values of `Cc1cc(C[C@H]2CCN([C@@H](C)c3cc4c(cc3F)OCCO4)C2)cc(C)n1` [Product 32] are 15.8 nM, 101%, 72% and 126 nM.
Regarding `Cc1cc(C[C@@H]2CCN(C(C)c3ccc4c(n3)OCCO4)C2)nc(C)n1` (stereo partly drawn) [Product 37], in data set [1], the IC50 is 251 nM. Further, the Emax in data set [1] was found to be 96%; at OGA, 14%. For the same compound, the EC50 at OGA (setting [2]) is above 1000 nM.
In the case of `Cc1cc(O[C@@H]2CCN(C(C)c3nc4c(cc3F)OCCO4)C2)cc(C)n1` (stereo partly drawn) [Product 38], in data set [1], the IC50 was 20 nM and the Emax is 98%. Also, the Emax at OGA amounted to 69%. Moreover, the EC50 on OGA (setting [2]) was 316 nM.
Consider `Cc1cc(O[C@@H]2CCN(C(C)c3nc4c(cc3F)OCCO4)C2)cc(C)n1` (stereo partly drawn) [Product 39], for which, in data set [1], the IC50 is 10 nM and the “Enzymatic Emax (%)” value came out at 100%. Also, the EC50 at OGA (setting [2]) was 251 nM. In addition, the “Cellular Emax (%)” value at OGA (setting [3]) was 74%.
Take `COc1cc(C[C@@H]2CCN([C@@H](C)c3cc4c(cc3F)OCCO4)C2)cc(C)n1` [Product 43]: in data set [1], the IC50 was 15.8 nM and the Emax was determined as 102%. Further, the Emax at OGA is 68%. Besides, the EC50 at OGA (setting [2]) is 398 nM.
In the same order, the values of `Cc1cc(C[C@@H]2CCN([C@@H](C)c3cc4c(cc3F)OCCO4)C2)cc(C)n1` [Product 45] are 5.01 nM, 101%, 72% and 100 nM.
In the same order, the values of `Cc1cc(OC[C@H]2CCN(C(C)c3ccc4c(n3)OCCO4)C2)cc(C)n1` (stereo partly drawn) [Product 47] are 631 nM, 97%, 9% and above 1000 nM.
As for `COc1cc(OC[C@@H]2CCN(C(C)c3ccc4c(n3)OCCO4)C2)cc(C)n1` (stereo partly drawn) [Product 48], the IC50 in data set [1] was 1000 nM. The Emax in data set [1] came to 91%; at OGA it was 1%. Moreover, on OGA (setting [2]), the EC50 was above 1000 nM.
With `Cc1cc(CO[C@H]2CCN(C(C)c3ccc4c(n3)OCCO4)C2)cc(C)n1` (stereo partly drawn) [Product 49], in data set [1], the IC50 is 5010 nM and the Emax is 70%. The Emax at OGA is -5%. Also, the EC50 at OGA (setting [2]) is above 1000 nM.
Regarding `Cc1cc(OC[C@@H]2CCN(C(C)c3nc4c(cc3F)OCCO4)C2)cc(C)n1` (stereo partly drawn) [Product 50], in data set [1], the IC50 was 50.1 nM and the Emax amounted to 100%. The Emax on OGA came out at 58%. Besides, the EC50 at OGA (setting [2]) was 631 nM.
With `CC(c1nc2c(cc1F)OCCO2)N1CC[C@@H](Oc2ccc(C#N)nn2)C1` (stereo partly drawn) [Product 53], in data set [1], the IC50 is 63.1 nM and the Emax was determined as 93%. In addition, the Emax on OGA was 43%. The EC50 at OGA (setting [2]) is above 1000 nM.
Turning to `Cc1ccc(O[C@H]2CCN(C(C)c3ccc4c(n3)OCCO4)C2)cn1` (stereo partly drawn) [Product 56], in data set [1], the IC50 is 2510 nM and the Emax was 83%. For the same compound, the Emax at OGA is 8%. In addition, the EC50 at OGA (setting [2]) was above 1000 nM.
In the same order, the values of `Cc1ccc(O[C@H]2CCN(C(C)c3nc4c(cc3F)OCCO4)C2)cn1` (stereo partly drawn) [Product 57] are 316 nM, 96%, 33% and above 1000 nM.
For `Cc1cc(CC2(C)CCN(C(C)c3ccc4c(n3)OCCO4)C2)cc(C)n1` (stereo not drawn) [Product 58], in data set [1], the IC50 is 316 nM and the Emax is 100%. The Emax at OGA is 17%. Further, the EC50 on OGA (setting [2]) is above 1000 nM.
Regarding `Cc1cc(CC2(C)CCN(C(C)c3ccc4c(n3)OCCO4)C2)cc(C)n1` (stereo not drawn) [Product 59], in data set [1], the IC50 was 398 nM and the “Enzymatic Emax (%)” value was found to be 97%. For the same compound, the “Cellular hOGA; pEC50” value on OGA (setting [2]) is below 6. Also, at OGA (setting [3]), the “Cellular Emax (%)” value came out at 34%.
With `Cc1ncc(O[C@@H]2CCN(C(C)c3ccc4c(n3)OCCO4)C2)cn1` (stereo partly drawn) [Product 62], in data set [1], the IC50 is 2510 nM and the Emax stood at 86%. In addition, the Emax at OGA came to 1%. In addition, the EC50 at OGA (setting [2]) was above 1000 nM.
As to `Cc1cc(O[C@@H]2CCN(C(C)c3nc4c(cc3F)OCCO4)C2)ccn1` (stereo partly drawn) [Product 125], the IC50 in data set [1] is 158 nM. Besides, the Emax was 89% in data set [1] and 48% at OGA. Moreover, on OGA (setting [2]), the EC50 is 501 nM.
Regarding `Cc1ncc(O[C@@H]2CCN(C(C)c3nc4c(cc3F)OCCO4)C2)nc1C` (stereo partly drawn) [Product 126], in data set [1], the IC50 was 100 nM and the Emax came to 94%. The Emax at OGA is 73%. Besides, the EC50 at OGA (setting [2]) is 501 nM.
On to `CC(c1nc2c(cc1F)OCCO2)N1CC[C@@H](Oc2ccc(C(F)(F)F)nc2)C1` (stereo partly drawn) [Product 127], for which, in data set [1], the IC50 was 200 nM and the Emax was found to be 96%. Further, the Emax at OGA amounted to 26%. Moreover, the EC50 at OGA (setting [2]) is above 1000 nM.
As to `Cc1cc(O[C@@H]2CCN(C(C)c3nc4c(cc3F)OCCO4)C2)nc(C)n1` (stereo partly drawn) [Product 128], in data set [1], the IC50 is 50.1 nM and the Emax was 95%. The Emax at OGA worked out at 59%. Further, the EC50 at OGA (setting [2]) was 437 nM.
In the case of `Cc1cc(O[C@@H]2CCN(C(C)c3nc4c(cc3F)OCCO4)C2)cnc1C` (stereo partly drawn) [Product 129], in data set [1], the IC50 was 200 nM and the Emax came to 91%. Further, the Emax at OGA was 45%.
